Experimental data from ChEMBL document CHEMBL1150923, “A new cacospongionolide inhibitor of human secretory phospholipase A2 from the Tyrrhenian sponge Fasciospongia cavernosa and absolute configuration of cacospongionolides” (J Nat Prod, 1998).
Converted amounts (≈) assume the structure as drawn.

Experiments:
[1] = Inhibition of pig pancreatic group1 sPLA2 by liquid scintillation counting; parameters: species or system Sus scrofa
[2] = Cytotoxicity against human neutrophils by MTT assay; type: cell-based; conditions: neutrophil
[3] = Inhibition of pig pancreatic group1 sPLA2 at 10 uM by liquid scintillation counting; parameters: species or system Sus scrofa
[4] = biological target: T1, Phospholipase A2, membrane associated (Homo sapiens, UniProt P14555); experiment: Inhibition of human synovial group2 sPLA2 by liquid scintillation counting
T1 sequence (P14555 whole entry): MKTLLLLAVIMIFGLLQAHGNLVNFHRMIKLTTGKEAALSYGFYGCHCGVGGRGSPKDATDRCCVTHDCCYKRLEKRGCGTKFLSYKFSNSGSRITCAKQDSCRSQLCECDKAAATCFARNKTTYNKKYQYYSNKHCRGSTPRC

[5] = biological target: T2, Phospholipase A2 (Apis mellifera, UniProt P00630); experiment: Inhibition of bee venom group3 sPLA2 by liquid scintillation counting
T2 sequence (P00630 whole entry): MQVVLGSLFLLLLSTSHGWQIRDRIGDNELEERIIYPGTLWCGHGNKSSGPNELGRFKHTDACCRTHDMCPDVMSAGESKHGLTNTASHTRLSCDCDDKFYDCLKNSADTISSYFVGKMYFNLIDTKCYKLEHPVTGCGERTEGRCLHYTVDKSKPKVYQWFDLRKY

[6] = biological target: T3, Phospholipase A2, membrane associated (Rattus norvegicus, UniProt P14423); experiment: Inhibition of rat air pouch group2 sPLA2 by liquid scintillation counting
T3 sequence (P14423 whole entry): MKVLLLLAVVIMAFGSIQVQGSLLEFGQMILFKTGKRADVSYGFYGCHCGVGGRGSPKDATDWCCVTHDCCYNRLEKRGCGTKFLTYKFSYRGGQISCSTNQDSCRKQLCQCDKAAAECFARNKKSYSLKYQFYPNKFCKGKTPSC

[7] = Toxicity in Gambusia affinis; type: organism-based; conditions: in vivo
[8] = Toxicity in Artemia salina; type: organism-based; conditions: in vivo

C=C1CCC[C@H]2[C@](C)(CCC3=CCC(C4=CC(=O)OC4O)OC3)[C@H](C)CC[C@]12C (stereo partly drawn) [CACOSPONGIONOLIDE B]
IC50 [1]: 4 µM | Activity [2]: Not Active | IC50 [3]: 64.2 µM | IC50 [4]: 4.3 µM

C[C@H]1CC[C@@]23C[C@]2(C)CCC[C@@H]3[C@@]1(C)CCC1=CC[C@H](C2=CC(=O)O[C@H]2O)OC1 [CACOSPONGIONOLIDE]
Activity [2]: Not Active | IC50 [5]: 2.3 µM | IC50 [3]: 14.4 µM | IC50 [4]: 3 µM

CC1=CCC[C@@H]2[C@@](C)(CCC3=CC[C@H](C4=CC(=O)O[C@H]4O)OC3)[C@@H](C)CC[C@@]12C [CACOSPONGIONOLIDE E]
IC50 [6]: 7.8 µM | LC50 [7]: 1.01 µg/mL (≈ 2.52 µM) | Activity [2]: Not Active | IC50 [5]: 2.8 µM | IC50 [3]: 5.3 µM | LC50 [8]: 1.29 µg/mL (≈ 3.22 µM) | IC50 [4]: 1.4 µM

CC1=C(CC/C(C)=C/CCC2=CC[C@H](C3=CC(=O)O[C@H]3O)O[C@H]2O)C(C)(C)CCC1 [MANOALIDE]
Activity [2]: Not Active | IC50 [3]: 32.3 µM | IC50 [4]: 3.9 µM
